# Assay results taken from US7563791B2, “Pyrrolotriazine derivatives useful for treating hyper-proliferative disorders and diseases associated with angiogenesis” (Bayer Pharmaceuticals Corporation, priority 2004, dated 2009).
# Columns and labels:
# Assay type in all cases: cell-based
# HCT116 cells = assay: Tumor cell proliferation (Alamar Blue), HCT116; conditions: Homo sapiens, HCT-116, 72 h
# Protocol: (§1) Human tumor cells (e.g., HCT116 or MDA-MB-231 cells), are seeded in a Costar 96-well plate at 3.0×10^3 cells/well and grown in 150 μl of RPMI complete media (Invitrogen Corporation, Grand Island, N.Y.) containing 10% fetal bovine serum (Hyclone, Logan, Utah) at 37° C. for 16 h in an incubator with 5% CO2. To each well, 50 μl of additional growth media containing 40 μM to 18 nM concentrations of compound with 0.4% DMSO is added. Cells are grown for another 72 h at 37° C. with 5% CO2. 20 μl of Alamar Blue (Trek Diagnostic Systems, Inc., Cleveland, Ohio) reagent is added to each well and incubated for 3 h at 37° C. Plates are read in a SpectraMax Gemini (Molecular Devices, Calif.) with 544 nm excitation and 590 nm emission wavelength. IC50 values are determined by linear regression analysis of log drug concentration versus percent inhibition.
# MDA-MB-231 cells = assay: Tumor cell proliferation (Alamar Blue), MDA-MB-231; conditions: Homo sapiens, MDA-MB-231, 72 h
# Protocol: as §1
# [1] = tested on: VEGF stimulated Phospho-ERK in HUVEC; assay: Growth factor stimulated p-ERK assay in HUVECs (VEGF stimulation, ERK1/2 Bioplex); conditions: Homo sapiens, compound 2 hrs, then 50 ng/ml VEGF 10 min; for inhibition at 0.1 µM: @ 100 nM
# Protocol: Growth Factor Stimulated p-ERK assay in HUVECs
# Exponentially growing human endothelial HUVECs cells (human umbilical vein endothelial cells, cat# CC-2517, Cambrex, Walkersville, Md.) were seeded at twenty five thousand cells/well in 96 well plates in EBM-2 MV medium with growth factors (cat# CC-3202, Cambrex) and grown at 37° C. in 5% CO2. Sixteen hours post-plating, the cells were changed to serum-free medium (RPMI 1640 containing 0.1% BSA (bovine serum albumin) and compounds were added at different concentrations for 2 hrs, after which the cells were stimulated for 10 min with 50 ng/ml of either VEGF (vascular endothelial growth factor, Protein Sciences, Meriden, Conn.) or bFGF (basic fibroblast growth factor cat# PHG0026, Biosource International, Camarillo, Calif.). The rest of the assay was performed per manufacturer indications for the ERK½ Bioplex assay (cat#171-304004, Bio-Rad, Hercules, Calif.). After removing culture medium by aspiration, the cells were quickly rinsed with 100 μl of cell wash buffer A to stop treatment reaction. Eighty microliters of cell lysis buffer were then immediately added to each well of the 96 well plate which was put on ice. Cells in each well were lysed by pipetting up and down 5 times with a multi-channel pipet. The plate was then agitated on a microtiter plate shaker at 300 rpm for 20 min at 4° C. Cellular debris were pelleted by centrifugation at 4500 g for 15 min at 4° C. and the supernatant was collected. Forty five microliters of supernatant was diluted with an equal volume of Bio-Plex phosphoprotein assay Buffer B, The coupled and color coated beads were added into a 96 well filter plate, and the prepared lysates were added. The beads and lysate mixture was incubated at room temperature for 15-18 hrs. The following day, the plate was vacuum-filtered and then washed 3×. Twenty-five microliters of detection antibody solution were added to each well and the plate was then incubated for 30 min at room temperature. The plate was then vaccum-filtered and washed as described previously. Fifty microliters of streptavidin-PE solution was added to each well, the plate was incubated for 10 min at room temperature and then was then vaccum-filtered and washed as described above. One hundred twenty-five microliters of resuspension buffer was added to each well and data were acquired on the Luminex 100 instrument (Bio-Rad).
IC50 (MDA-MB-231 cells) [µM],IC50 (HCT116 cells; bounds given in μM) [µM],IC50 (MDA-MB-231 cells; bounds given in μM) [µM],SMILES,inhibition at 0.1 µM [1] [%],inhibition at 1 µM [1] [%],other results
,< 1.5,1.5 to 5,"Nc1ncnn2cc(C(=O)NC3CC3)c(-c3ccc(NC(=O)Nc4cc(C(F)(F)F)ccc4F)cc3)c12 [Example 69, 4-amino-N-cyclopropyl-5-{4-[({[2-fluoro-5-(trifluoromethyl)phenyl]amino}carbonyl)amino]phenyl}pyrrolo[2,1-f][1,2,4]triazine-6-carboxamide]",,,IC50 (HCT116 cells): > 0.5 µM
< 0.5,< 1.5,,"CCNC(=O)c1cn2ncnc(N)c2c1-c1ccc(NC(=O)Nc2cc(C(F)(F)F)ccc2F)cc1 [Example 71, 4-amino-N-ethyl-5-{4-[({[2-fluoro-5-(trifluoromethyl)phenyl]amino}carbonyl)amino]phenyl}pyrrolo[2,1-f][1,2,4]triazine-6-carboxamide]",,,IC50 (HCT116 cells): > 0.5 µM
,1.5 to 5,1.5 to 5,"CNC(=O)c1cn2ncnc(N)c2c1-c1ccc(NC(=O)Nc2cc(C(C)(C)C)ccn2)cc1 [Example 73, 4-amino-5-[4-({[(4-tert-butylpyridin-2-yl)amino]carbonyl}amino)phenyl]-N-methylpyrrolo[2,1-f][1,2,4]triazine-6-carboxamide]",,,
,1.5 to 5,1.5 to 5,"CNC(=O)c1cn2ncnc(N)c2c1-c1ccc(NC(=O)Nc2ccc(F)c(C(F)(F)F)c2)cc1 [Example 74, 4-amino-5-{4-[({[4-fluoro-3-(trifluoromethyl)phenyl]amino}carbonyl)amino]phenyl}-N-methylpyrrolo[2,1-f][1,2,4]triazine-6-carboxamide]",,,
> 0.5,1.5 to 5,< 1.5,"Nc1ncnn2cc(C(=O)NC3CC3)c(-c3ccc(NC(=O)Nc4cc(C(F)(F)F)ccn4)cc3)c12 [Example 82, 4-amino-N-cyclopropyl-5-{4-[({[4-(trifluoromethyl)pyridin-2-yl]amino}carbonyl)amino]phenyl}pyrrolo[2,1-f][1,2,4]triazine-6-carboxamide]",,,
,5 to 10,,"COCCN(C)C(=O)c1cn2ncnc(N)c2c1-c1ccc(NC(=O)Nc2ccc(F)c(C(F)(F)F)c2)cc1 [Example 84, 4-amino-5-{4-[({[4-fluoro-3-(trifluoromethyl)phenyl]amino}carbonyl)amino]phenyl}-N-(2-methoxyethyl)-N-methylpyrrolo[2,1-f][1,2,4]triazine-6-carboxamide]",,,
,5 to 10,1.5 to 5,"Cn1nc(C(C)(C)C)cc1NC(=O)Nc1ccc(-c2c(C(=O)NCC(F)(F)F)cn3ncnc(N)c23)cc1 [Example 94, 4-amino-5-[4-({[(3-tert-butyl-1-methyl-1H-pyrazol-5-yl)amino]carbonyl}amino)phenyl]-N-(2,2,2-trifluoroethyl)pyrrolo[2,1-f][1,2,4]triazine-6-carboxamide]",,,
> 0.5,1.5 to 5,< 1.5,"CC(C)(CN1CCOCC1)NC(=O)c1cn2ncnc(N)c2c1-c1ccc(NC(=O)Nc2cc(C(F)(F)F)ccc2Cl)cc1 [Example 149, 4-amino-5-{4-[({[2-chloro-5-(trifluoromethyl)phenyl]amino}carbonyl)amino]phenyl}-N-(1,1-dimethyl-2-morpholin-4-ylethyl)pyrrolo[2,1-f][1,2,4]triazine-6-carboxamide]",,,
< 0.5,< 1.5,,"Nc1ncnn2cc(-c3cnco3)c(-c3ccc(NC(=O)Nc4cc(C(F)(F)F)ccn4)cc3)c12 [Example 156, N-{4-[4-amino-6-(1,3-oxazol-5-yl)pyrrolo[2,1-f][1,2,4]triazin-5-yl]phenyl}-N′-[4-(trifluoromethyl)pyridin-2-yl]urea]",,,IC50 (HCT116 cells): > 0.5 µM
> 0.5,,< 1.5,"Nc1ncnn2cc(CO)c(-c3ccc(NC(=O)Nc4cc(C(F)(F)F)ccc4F)c(F)c3)c12 [Example 251, N-{4-[4-amino-6-(hydroxymethyl)pyrrolo[2,1-f][1,2,4]triazin-5-yl]-2-fluorophenyl}-N′-[2-fluoro-5-(trifluoromethyl)phenyl]urea]",,,

# More lines, now with the values behind:
SMILES,IC50 (MDA-MB-231 cells) [µM],IC50 (HCT116 cells; bounds given in μM) [µM],IC50 (MDA-MB-231 cells; bounds given in μM) [µM],inhibition at 0.1 µM [1] [%],inhibition at 1 µM [1] [%],other results
"CCOC(=O)c1cn2ncnc(N)c2c1-c1ccc(NC(=O)Nc2cc(C(C)(C)C)nn2-c2ccc(F)cc2)cc1 [Example 25, ethyl 4-amino-5-{4-[({[3-tert-butyl-1-(4-fluorophenyl)-1H-pyrazol-5-yl]amino}carbonyl)amino]phenyl}pyrrolo[2,1-f][1,2,4]triazine-6-carboxylate]",< 0.5,,,,,IC50 (HCT116 cells): < 0.5 µM
"CC(C)(C)c1ccnc(NC(=O)Nc2ccc(-c3c(C(=O)NC4CC4)cn4ncnc(N)c34)cc2)c1 [Example 76, 4-amino-5-[4-({[(4-tert-butylpyridin-2-yl)amino]carbonyl}amino)phenyl]-N-cyclopropylpyrrolo[2,1-f][1,2,4]triazine-6-carboxamide]",,< 1.5,1.5 to 5,,,IC50 (HCT116 cells): > 0.5 µM
"CCOC(=O)c1cn2ncnc(N)c2c1-c1ccc(NC(=O)Nc2cccc(OCCN(CC)CC)c2)cc1 [Example 98, ethyl 4-amino-5-(4-{[({3-[2-(diethylamino)ethoxy]phenyl}amino)carbonyl]amino}phenyl)pyrrolo[2,1-f][1,2,4]triazine-6-carboxylate]",,,,< 50,< 50,inhibition at 10 µM [1]: > 50%
"NC(=O)c1cn2ncnc(N)c2c1-c1ccc(NC(=O)Nc2cc(C(F)(F)F)ccc2F)cc1 [Example 104, 4-amino-5-{4-[({[2-fluoro-5-(trifluoromethyl)phenyl]amino}carbonyl)amino]phenyl}pyrrolo[2,1-f][1,2,4]triazine-6-carboxamide]",,,,< 50,< 50,inhibition at 10 µM [1]: > 50%
"COCCNC(=O)c1cn2ncnc(N)c2c1-c1ccc(NC(=O)Nc2cccc(SC(F)(F)F)c2)cc1 [Example 131, 4-amino-N-(2-methoxyethyl)-5-(4-{[({3-[(trifluoromethyl)thio]phenyl}amino)carbonyl]amino}phenyl)pyrrolo[2,1-f][1,2,4]triazine-6-carboxamide]",,,,< 50,> 50,
"Nc1ncnn2cc(C(=O)NCC(F)(F)F)c(-c3ccc(NC(=O)Nc4ccnc(C(F)(F)F)c4)cc3)c12 [Example 140, 4-amino-N-(2,2,2-trifluoroethyl)-5-{4-[({[2-(trifluoromethyl)pyridin-4-yl]amino}carbonyl)amino]phenyl}pyrrolo[2,1-f][1,2,4]triazine-6-carboxamide]",,,,< 50,< 50,inhibition at 10 µM [1]: > 50%
"CC(C)(CO)NC(=O)c1cn2ncnc(N)c2c1-c1ccc(NC(=O)Nc2cc(C(F)(F)F)ccc2Cl)cc1 [Example 143, 4-amino-5-{4-[({[2-chloro-5-(trifluoromethyl)phenyl]amino}carbonyl)amino]phenyl}-N-(2-hydroxy-1,1-dimethylethyl)pyrrolo[2,1-f][1,2,4]triazine-6-carboxamide]",,,,< 50,> 50,
"Nc1ncnn2cc(C(=O)NCC3CCCO3)c(-c3ccc(NC(=O)Nc4cc(C(F)(F)F)ccc4F)cc3)c12 (stereo not drawn) [Example 146, 4-amino-5-{4-[({[2-fluoro-5-(trifluoromethyl)phenyl]amino}carbonyl)amino]phenyl}-N-(tetrahydrofuran-2-ylmethyl)pyrrolo[2,1-f][1,2,4]triazine-6-carboxamide]",,,,< 50,> 50,
"N#Cc1cn2ncnc(N)c2c1-c1ccc(NC(=O)Nc2ccnc(C(F)(F)F)c2)cc1 [Example 153, N-[4-(4-amino-6-cyanopyrrolo[2,1-f][1,2,4]triazin-5-yl)phenyl]-N′-[2-(trifluoromethyl)pyridin-4-yl]urea]",,5 to 10,5 to 10,,,
"N#Cc1cn2ncnc(N)c2c1-c1ccc(NC(=O)Nc2cccc(C(F)(F)F)n2)cc1 [Example 168, N-[4-(4-amino-6-cyanopyrrolo[2,1-f][1,2,4]triazin-5-yl)phenyl]-N′-[6-(trifluoromethyl)pyridin-2-yl]urea]",,,,< 50,> 50,
